How the values were obtained:
stratum corneum [1] = experiment: Skin barrier improvement: transepidermal (insensible) water loss (PIE), Servomed evaporimeter, cream applied to inner forearm; type: in vivo, volontaires sains ayant une peau sèche; settings: cream with 0,5 % (ex. 7, témoins), 1 % (ex. 4, 8), 5 % (ex. 6)
Description: (§1) Les exemples qui suivent permettent d'illustrer l'invention. […] Les valeurs sont exprimées en nombre d'onde par centimètre. - Résonance magnétique nucléaire (RMN) Les spectres sont réalisés au moyen d'un appareil BRUCKER DRX 500, à 500 MHz (^1H) et 125 MHz (^13C) dans le DMSO-d6. La calibration de l'appareil est effectuée au moyen de DMSO. Les déplacements chimiques sont exprimés en ppm. […] On utilise le N-succinyl-(Ala)3-p-nitroanilide en solution dans le tétrahydrofurane et une solution d'élastase à 100 mg/ml dans un mélange de glycérol et de tampon acétate de sodium (50/50; v/v), pH5. L'activité de l'enzyme est mesurée à 37°C dans 100 mM de tampon Tris-HCI, pH8 contenant 0,01 % de Triton X-100 (volume/volume) et 0,02 % d'azide de sodium (poids/volume). Le céramide à tester, solubilisé dans le tétrahydrofurane (concentration en THF = 0,5 % en volume) est préincubé en présence de l'enzyme (0,05 mg/ml) dans le tampon pendant 5 minutes à 37°C. On ajoute le N-succinyl-(Ala)3-p-nitroanilide (concentration finale : 250 µM) et on mesure la libération de la p-nitroaniline dans une cuve en quartz par spectrophotométrie à 410 nm. La capacité inhibitrice du céramide est exprimée en pourcentage d'inhibition (% I) selon la relation : %I = (1 -(Vi)/(Vo))×100 [formula] dans laquelle Vi et Vo sont les vitesses d'apparition de la p-nitroaniline en présence et en absence d'inhibiteur respectivement. - Mesure de l'amélioration de la barrière cutanée a) mesure de la Perte Insensible en Eau (PIE) La mesure de la PIE permet de quantifier la très faible quantité d'eau qui diffuse passivement à travers le stratum corneum. Ce paramètre représente un très bon index de la fonction barrière du stratum corneum. Cette méthode est surtout utilisée pour contrôler l'efficacité de formules cosmétiques qui, contenant certains types de lipides sont capables de diminuer la PIE et, en conséquence, d'empêcher la déshydratation du stratum corneum. La sonde est laissée en contact de la peau pendant 2 minutes environ de façon à atteindre une position d'équilibre. PIE = D'(dP)/(dx)(gradient de pression de vapeur) [formula] Les valeurs sont exprimées en g/m^2/heure et permettent de calculer un delta de PIE = PIE (peau traitée) - PIE (peau témoin). L'appareil utilisé est un Evaporimètre EPI de Servomed. Les mesures sont effectuées sur deux groupes de 15 volontaires sains ayant une peau sèche, avant l'application du produit (t=0) et après l'application (t=0,5 heure, 1 heure, 3 heures et 6 heures) sur la face interne des deux avant-bras. L'analogue de céramide selon l'invention ou le céramide témoin est incorporé dans une crème ayant la composition suivante (en % en poids) :
(§2) La teneur en analogue de céramide dans la crème est égale à 0,5 % (exemple 7), 1 % (exemples 4 et 8) et 5 % (exemple 6), et celle des céramides témoins (a) et (b) est égale à 0,5 %. La diminution des valeurs de PIE signifie une amélioration de la qualité de la barrière cutanée qui traduit un meilleur pouvoir retentionnel de l'eau au niveau de la couche cornée et donc une meilleure hydratation. b) hydratation cutanée L'eau peut être considérée comme un dipôle électrique capable de conduire l'électricité. Le transport d'électricité dans un champ donné est proportionnel à la quantité d'eau présente dans le stratum corneum. Plus une peau est riche en eau et plus le courant électrique passe rapidement entre 2 électrodes. Il existe donc un lien entre l'hydratation du stratum corneum et les modifications des propriétés électriques. Les mesures de capacitance, liée à la constante diélectrique de la peau, sont réalisées par le Cornéomètre Courage+Khazaka CM 200, dont la sonde présente une surface de contact avec la peau de 49 mm^2; cette sonde est appliquée avec une pression constante sur la surface cutanée à mesurer, et l'indice d'hydratation directement proportionnel au taux hydrique de surface est instantané.

stratum corneum [2] = experiment: Skin hydration: capacitance measurement (Corneometer Courage+Khazaka CM 200), hydration index, cream applied to forearm; type: in vivo, volontaires sains ayant une peau sèche; settings: cream with 0,5 % (ex. 7, témoins), 1 % (ex. 4, 8), 5 % (ex. 6)
Description: as §1, §2

[3] = t=0 heure (before application, baseline)

Structure (SMILES): CCCCCCCCCCCCCCCCCC(=O)NC(CC)(CO)COC(=O)CCCCCCCCCCCCCCCCC (stereo not shown) [Exemple 4, 1-stéaroyl-2-éthyl-2-stéaroylamino-1,3-propanediol]
- Perte Insensible en Eau (PIE) M±s (stratum corneum [1]; t=0,5 heure after application): 3,89±0,85 g/m^2/heure
- Perte Insensible en Eau (PIE) M±s (stratum corneum [1]; [3]): 4,52±0,79 g/m^2/heure
- Perte Insensible en Eau (PIE) M±s (stratum corneum [1]; t=1 heure after application): 2,95±1,15 g/m^2/heure
- Perte Insensible en Eau (PIE) M±s (stratum corneum [1]; t=3 heures after application): 4,30±0,97 g/m^2/heure
- Perte Insensible en Eau (PIE) M±s (stratum corneum [1]; t=6 heures after application): 4,00±1,24 g/m^2/heure
- Indice d'Hydratation (IH) M±s (stratum corneum [2]; t=0,5 heure after application): 66,87±7,50
- Indice d'Hydratation (IH) M±s (stratum corneum [2]; [3]): 64,69±9,04
- Indice d'Hydratation (IH) M±s (stratum corneum [2]; t=1 heure after application): 65,56±6,96
- Indice d'Hydratation (IH) M±s (stratum corneum [2]; t=3 heures after application): 62,31±7,17
- Indice d'Hydratation (IH) M±s (stratum corneum [2]; t=6 heures after application): 62,91±7,78
